{
  "source": "patent US20250381307A1",
  "about": "“RETRO-AAV AND USE IN TREATING NEURODEGENERATIVE DISEASES” (priority 2023, published 2025)",
  "key": {"rM3Ds": {"biological_target": "T1, rM3Ds (Rattus norvegicus, UniProt P08483, A177S/A238G/A489L/DEL261-437/DEL441-478/E258S/I253V/I483M/INS256[…]/K178L/K182A/K255R/K484R/K486H/L173F/L482A/M480V/R171S/R176Q/R179M/S481M/T174R/T181R/T257A/Y148C)", "T1 sequence (P08483 with tags, fused parts or gaps Y148C/R171S/L173F/T174R/R176Q/A177S/K178L/R179M/T181R/K182A/A238G/I253V/K255R/INS256[…]/T257A/E258S/DEL261-437/DEL441-478/M480V/S481M/L482A/I483M/K484R/K486H/A489L)": "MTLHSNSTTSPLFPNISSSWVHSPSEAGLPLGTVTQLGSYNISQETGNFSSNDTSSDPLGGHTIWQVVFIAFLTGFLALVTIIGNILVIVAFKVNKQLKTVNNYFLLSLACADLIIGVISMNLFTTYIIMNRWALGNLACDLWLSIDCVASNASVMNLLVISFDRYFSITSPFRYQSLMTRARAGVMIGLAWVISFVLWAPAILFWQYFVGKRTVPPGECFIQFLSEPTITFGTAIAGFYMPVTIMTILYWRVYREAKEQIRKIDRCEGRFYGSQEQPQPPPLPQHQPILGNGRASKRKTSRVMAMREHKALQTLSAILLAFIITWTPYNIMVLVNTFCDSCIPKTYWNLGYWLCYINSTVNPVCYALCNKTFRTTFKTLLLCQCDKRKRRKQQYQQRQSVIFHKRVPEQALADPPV", "assay": "In vivo electrophysiological recording in caudate/putamen, rM3Ds macaques, intramuscular CNO", "design": "rM3Ds; 2A-EYFP (C); host or cells: AAV8R12-transduced striatal D1-MSNs of mice and cynomolgus macaques (in vivo and acute slices)", "method": "Electrophysiological recording was performed through a recording chamber while the monkey was anesthetized. Neural responses were recorded by a 16-channel linear probe (Plexon Inc, Uprobe) driven by a mechanical microdrive (Alpha Omega, FlexMT). Signals were passed through a head stage (Plexon Inc, HST/16V-G20 LN) and then split and filtered between 300 Hz and 5 kHz to identify spiking activity with an amplifier system (Plexon Inc, OmniPlex). Detected spikes were then sorted by commercially available software (Plexon Inc, Offline Sorter) for further analysis. To quantify the effect of CNO/DCZ injection, neural activity was recorded for 60 minutes following CNO/DCZ injection. The response time-course for each channel was obtained by counting the spikes within every 10-minute window and then normalizing to the maximal.\nTo determine the effect of CNO/DCZ injection on the direction of signal change, we performed Pearson correlation between neural responses and time using the ‘corr’ function in Matlab, which generates the correlation coefficient ‘r’ and significant level ‘p’. A neuron was considered to have “Increased” activity when r>0 and p<0.05; and considered to have “Decreased” activity when r<0 and p<0.05. Otherwise, neurons were considered to be “Unchanged” in their neural activities. The responses of all increased neurons were then averaged after being normalized by the maximal response (Crowe et al., 2014; Dai and Wang, 2018; Hirokawa et al., 2019) following CNO/DCZ injection, and then plotted as a function of time to generate the normalized population response.\nTo enable in-vivo verification of the strategy via an opto-tagging approach, AAV virus encoding opsin ChR2 (AAV9-EF1α-DIO-ChR2-EYFP) was injected into the striatum with simultaneous nigral infusion of a retrograde AAV encoding Cre and rM3Ds (AAV8R12-G88P7-HA-rM3Ds-2A-Cre). A total volume of 27 μl (3 μl×9 sites) and 30 μl (3 μl×10 sites) were injected in the SNr and the striatum, respectively. A recording chamber was implanted above the striatum to allow optical stimulation and electrophysiological recording.\nOptogenetic verification was conducted six weeks after virus injections. A 16-channel linear probe with an embedded optic fiber (Plexon Inc., Uprobe) was used to deliver light stimulation and record neural responses. A mechanical Microdrive (FlexMT, Alpha Omega, Nazareth, Israel) was used to mount and drive the probe. A blue laser (473 nm, Changchun New Industries Tech, MBL-III-473) was used to generate light stimulation, which was controlled by a DAQ board (National Instruments, PCIe-6321) through the MonkeyLogic toolbox (NIMH version).\nLight pulses of 40 Hz that last for 500 ms were used to probe neurons' responses to optical stimulation. […] Responses from these optically identified cells were grouped to generate the normalized population response as a function of time."}, "hM3Dq or rM3Ds": {"test_system": "hM3Dq or rM3Ds", "assay": "Locomotion test in macaques with nigral hM3Dq or rM3Ds AAV after CNO", "type": "in vivo", "method": "To guide the virus injection in SNr, a guide grid of multiple holes spaced by 1 mm was installed on each subject vertically above the SN. By filling vitamin E in these holes, the accurate coordinates for injection could be obtained from the T1-weighted MRI images (3T Tim Trio scanner, Siemens). Virus injections were performed in nine sites covering the whole SNr, and a total volume of 27 μL virus was unilaterally injected in the right SNr at the speed of 300 nL/min.\nThe locomotion tests for monkeys were conducted in a custom-made observation cage (100 cm×100 cm×100 cm). The top and front of the cage were made of toughened glass in order to gain a clear view for behavioral recording. Monkeys were habituated to the observation cage by placing them inside for 30 minutes on three separate days.\nFor monkeys injected with AAV8R12-G88P3-HA-hM3Dq, CNO was intracranially infused into the dorsomedial caudate through the recording chamber. To infuse while the animal was awake, the monkey was trained to sit in a primate chair specially designed with its head fixed to the primate chair by a mask made of thermoplastic materials. Injections were conducted through a 33-Gauge needle connected to a 250 μL syringe via a polyethylene pipe (Hamilton, Neuros). […] The needle was held for 5 minutes for drug diffusion before retraction. For monkeys injected with AAV8R12-G88P7-rM3Ds-2A-EYFP, CNO was infused via intramuscular injection (10 mg/kg). […] Videos capturing the subjects' behavior were recorded for at least 90 minutes. Animal behaviors from 30-90 minutes after saline/CNO infusion were further analyzed and quantified.\nFor rotation analysis, only movements that occurred lower than 30 cm on the z-axis were counted. To determine the direction of the rotation, we first computed the center for the rotation data in the x-y plane as (x0, y0) by averaging all data points, and then we computed the angle relative to (x0, y0) for each time point by the following formula:\nwhere θi represents the rotating angle at time i, and (xi, yi) represents the x-y coordinate at time i. We then calculated the change of rotating angle as Δθi=θi−θi-1. For right nigral injections, when Δθ<0, the direction of the rotation was anticlockwise and was labeled as a contraversive rotation. When Δθ>0, the direction of the rotation was clockwise and was labeled as an ipsiversive rotation. The raw data were analyzed and plotted through a custom R package. Code is available on Github (github.com/chenyef/PD_ana/blob/main/Behavior_ana.txt)."}},
  "data": [
    {"smiles": "C[N+]1([O-])CCN(C2=Nc3cc(Cl)ccc3Nc3ccccc32)CC1", "note": "[CNO, clozapine N-oxide]", "values": [
      {"measurement": "caudate/putamen cells activated (FIG. 12N)", "setting": "rM3Ds; 38 total cells, saline 20%", "value": 50, "unit": "%"},
      {"measurement": "caudate/putamen cells unchanged (FIG. 12N)", "setting": "rM3Ds; 38 total cells, saline 26.7%", "value": 36.8, "unit": "%"},
      {"measurement": "caudate/putamen cells inactivated (FIG. 12N)", "setting": "rM3Ds; 38 total cells, saline 53.3%", "value": 13.2, "unit": "%"},
      {"measurement": "neuronal activity of opto-tagged retrogradely labeled D1-MSNs", "setting": "rM3Ds; AAV8R12-G88P7-HA-rM3Ds-2A-Cre plus AAV9-EF1α-DIO-ChR2-EYFP, anesthetized macaques", "value": "effectively induced an increase of neuronal activity"},
      {"measurement": "caudate cells activated (FIG. 12F)", "setting": "rM3Ds; monkey CM048, 38 cells", "value": 65.8, "unit": "%"},
      {"measurement": "caudate cells inactivated (FIG. 12F)", "setting": "rM3Ds; monkey CM048, 38 cells", "value": 7.9, "unit": "%"},
      {"measurement": "caudate cells unchanged (FIG. 12F)", "setting": "rM3Ds; monkey CM048, 38 cells", "value": 26.3, "unit": "%"},
      {"measurement": "muscle tone by electromyogram recordings", "setting": "hM3Dq or rM3Ds; following CNO infusions", "value": "an increase in the muscle tone of the contralateral biceps brachii"},
      {"measurement": "contraversive rotations (FIG. 10C)", "setting": "hM3Dq or rM3Ds; intracranial (hM3Dq) or systemic (rM3Ds) CNO, n=4 monkeys, mean±SEM, saline 1.004±0.2667", "value": "6.649±1.662"},
      {"measurement": "velocity of ipsiversive rotations (FIG. 10H)", "setting": "hM3Dq or rM3Ds; n=4 monkeys, saline 37.43±3.264, not significant", "value": "41.37±6.566"},
      {"measurement": "speed during contraversive rotations (FIG. 10G)", "setting": "hM3Dq or rM3Ds; n=4 monkeys, saline 38.42±5.465", "value": "46.98±6.669"},
      {"measurement": "time in the top portion of the observing cage (FIG. 10D)", "setting": "hM3Dq or rM3Ds; n=4 monkeys, saline 68.42±10.7", "value": "33.74±2.641"},
      {"measurement": "total distance (FIG. 10F)", "setting": "hM3Dq or rM3Ds; n=4 monkeys, saline 71.53±15.4, not significant", "value": "97.37±19.41"},
      {"measurement": "immobile time (FIG. 10E)", "setting": "hM3Dq or rM3Ds; n=4 monkeys, saline 107.1±2.322, not significant", "value": "89.13±8.379"},
      {"measurement": "rotations 2.5 years after the nigral injections", "setting": "hM3Dq or rM3Ds; systemic CNO, unilateral AAV8R12-G88P7-rM3Ds-2A-EYFP", "value": "increased contraversive rotations"}
    ]}
  ]
}
